In patent US12030880B2, “Iminosulfanone compound as bromodomain protein inhibitor and pharmaceutical composition and medical use thereof” (CHIA TAI TIANQING PHARMACEUTICAL GROUP CO., LTD., priority 2018, dated 2024):

Experiments:
BRD4 (BD1) = BRD4 (BD1) (Homo sapiens (Human), UniProt O60885); assay: In vitro BRD4 (BD1) enzymatic activity assay (HTRF); type: binding; conditions: GST-BRD4 (BD1, 44-168 aa)
Experimental: In the present application, IC50 values of the compounds in inhibiting BRD4 (BD1) enzyme binding reaction were determined by homogeneous time resolved fluorescence (HTRF). A compounds was serially diluted 5-fold with 100% DMSO starting from 0.2 mM (7 concentrations in total), and then 2 μL of the compound at each concentration was added to 48 μL of a reaction buffer (20 mM HEPES pH 7.5, 150 mM NaCl, 5 mM DTT, 0.005% Tween 20, and 100 μg/mL BSA) for dilution, and mixed well. 2.5 μL of the resulting mixture was added to a 384-well plate (OptiPlate-384, purchased from PerkinElmer), then 5 μL of GST-BRD4 (BD1, 44-168 aa) (final concentration: 1 nM) was added, and the resulting mixture was centrifuged, and fully mixed. 2.5 μL of a short peptide Biotin-AHA-SGRGK(Ac)GGK(Ac)GLGK(Ac)GGAK(Ac) RHRKV (final concentration: 100 nM) was then added to initiate the reaction (total reaction volume: 10 μL). The 384-well plate was placed in an incubator at 23° C. to react for 1 hour, and then 5 μL of Eu3+ cryptate-labled anti-GST antibody (purchased from Cisbio) and 5 μL of Streptavidin-XL-665 (purchased from Cisbio) were added to terminate the reaction. After being incubated in the incubator for another 1 hour, the fluorescence values (excited at 320 nm, emitted light at 665 nm and 620 nm being detected, and the ratio of the two being the enzyme binding signal) were read on Envision (purchased from PerkinElmer). The binding strength of each compound to BRD4 (BD1) protein was determined respectively at 7 concentrations, and the data were calculated using GraphPad Prism software to obtain the IC50 value of the compound.

BRD4 (BD2) = BRD4 (BD2) (Homo sapiens (Human), UniProt O60885); assay: In vitro BRD4 (BD2) enzymatic activity assay (HTRF); type: binding; conditions: GST-BRD4 (BD2, 349-460 aa)
Experimental: In the present application, IC50 values of the compounds in inhibiting BRD4 (BD2) enzyme binding reaction were determined by homogeneous time resolved fluorescence (HTRF). A compound was serially diluted 5-fold with 100% DMSO starting from 1 mM (7 concentrations in total), and then 2 μL of the compound at each concentration was added to 18 μL of a reaction buffer (20 mM HEPES pH 7.5, 150 mM NaCl, 5 mM DTT, 0.005% Tween 20, and 100 μg/mL BSA) for dilution. After being mixed well, 2 μL of the compound at each concentration was added to 48 μL of the above reaction buffer for dilution, and mixed well (final concentration of the compound in DMSO: 0.1%). 2.5 μL of the resulting mixture was added to a 384-well plate (OptiPlate-384, purchased from PerkinElmer), then 5 μL of GST-BRD4 (BD2, 349-460 aa) (final concentration: 2 nM) was added, and the resulting mixture was centrifuged, and fully mixed. 2.5 μL of a peptide Biotin-AHA-SGRGK(Ac)GGK(Ac)GLGK(Ac)GGAK(Ac) RHRKV (final concentration: 200 nM) was then added to initiate the reaction (total reaction volume: 10 μL). The 384-well plate was placed in an incubator at 23° C. to react for 1 hour, and then 5 μL of Eu3+ cryptate-labled anti-GST antibody (purchased from Cisbio) and 5 μL of Streptavidin-XL-665 (purchased from Cisbio) were added to terminate the reaction. After being incubated in the incubator for another 1 hour, the fluorescence values (excited at 320 nm, emitted light at 665 nm and 620 nm being detected, and the ratio of the two being the enzyme binding signal) were read on Envision (purchased from PerkinElmer). The binding strength of each compound to BRD4 (BD2) protein was determined respectively at 7 concentrations, and the data were calculated using GraphPad Prism software to obtain the IC50 value of the compound.

MV4-11 cells = assay: Cell proliferation activity assay in MV4-11; type: cell-based; conditions: Homo sapiens, inhibiting cell proliferation, 72 hours, Cell-Titer Blue
Experimental: (§1) Human acute lymphoblastic leukemia cell line MV4-11 cells were cultured in PRIM1640 medium plus 10% fetal bovine serum (FBS, purchased from Biological Industries, BI) and 1% penicillin/streptomycin double antibody (P/S, purchased from Life Technology) at 37° C. with 5% CO2. On the day before the compound test, MV4-11 cells were spread in a 96-well plate (purchased from Corning) at a concentration of 8000 cells/195 μL/well. After 24 hours, the compound was serially diluted 4-fold with 100% DMSO starting from 10 mM (9 concentrations in total), and then 2 μL of the compound at each concentration was added to 48 μL of PRIM1640 medium for dilution. 5 μL of the diluted compound at each concentration was added to the wells spread with the cell suspension, and the compound and cells were co-incubated in a cell incubator for 72 hours (3 days). Then the mixture was added with 35 μL of Cell-Titer Blue reagent (purchased from Promega) and incubated for another 4 hours. The fluorescence values (excited at 560 nm, detected at 590 nm) were then read on Flexstation III, and the data were calculated using GraphPad Prism software to give IC50 value of the compound in inhibiting cell proliferation.

Kasumi-1 cells = assay: Cell proliferation activity assay in Kasumi-1; type: cell-based; conditions: Homo sapiens, inhibiting cell proliferation, 72 hours, Cell-Titer Blue
Experimental: as §1, with “myeloblastic” for “lymphoblastic”, “Kasumi-1” for “MV4-11”, “20%” for “10%”, “5000” for “8000”

[1] = Animal pharmacokinetic study on compounds; type: in vivo; conditions: rat, po; male rats, single intragastric administration, 5 mg/kg, plasma
Experimental: Three healthy adult male rats that obtained from Beijing Vital River Laboratory Animal Technology Co., Ltd were used for the animal pharmacokinetic experiment. A compound was suspended in 2% absolute ethanol, 5% tween 80, 20% polyethylene glycol 400, and 73% (5% hydroxypropylmethyl cellulose in water) (V/V/V/V) at a concentration of 1 mg/mL. The administration volume was 5 mL/kg, and animals were treated with a single intragastric administration at a dose of 5 mg/kg. Animals were fasted overnight prior to the experiment, and the fasting time was from 10 hours before administration to 4 hours after administration. Blood was sampled at 0.25, 0.5, 1, 2, 4, 6, 8 and 24 hours after administration. Animals were lightly anesthetized with isoflurane, and approximately 0.4 mL of whole blood was collected from the orbital venous plexus using a glass blood collection tube, and placed in a heparin anticoagulation tube. The sample was centrifuged at 4200 rpm for 5 minutes at 4° C., and then the plasma was transferred to a centrifuge tube and stored at −80° C. until analyzed. In the plasma sample analysis, test compounds and internal standards (warfarin or propranolol) were extracted from rat plasma by acetonitrile protein precipitation, and the extracts were analyzed by LC/MS/MS. The measured plasma concentration-time data of the individual animals were analyzed using a non-compartmental model of WinNonlin (version no. 5.2.1; Pharsight) software to give pharmacokinetic parameters as shown in Table 3 below: the maximum (peak) plasma drug concentration Cmax; the time to peak Tmax; the half-life T1/2 and the area under the plasma concentration-time curve extrapolated to infinity AUC0-inf.

Row | Structure (SMILES) | IC50 (BRD4 (BD1)) | IC50 (BRD4 (BD2)) | IC50 (MV4-11 cells) | AUC(0-inf) [1] | Cmax [1] | Tmax [1] | half-life [1] | IC50 (Kasumi-1 cells)
1 | Cn1cc(-c2cc(N=S(C)(C)=O)cnc2Oc2ccc(F)cc2F)c2cc[nH]c2c1=O [Example 4, 4-{2-(2,4-difluorophenoxy)-5-{[dimethyl(oxo)-λ^6-sulfanylidene]amino}-pyridin-3-yl}-6-methyl-1,6-dihydro-7H-pyrrolo[2,3-c]pyridin-7-one] | 0.93 nM | 0.35 nM | 8.3 nM | 2.3 µg·h/mL | 0.459 µg/mL | 0.83 h | 2.94 h | 4.4 nM
2 | Cn1cc(-c2nc(N=S(C)(C)=O)ccc2Oc2ccc(F)cc2F)c2cc[nH]c2c1=O [Example 18, 4-{3-(2,4-difluorophenoxy)-6-{[dimethyl(oxo)-λ^6-sulfanylidene]amino}-pyridin-2-yl}-6-methyl-1,6-dihydro-7H-pyrrolo[2,3-c]pyridin-7-one] |  |  | 3.14 nM |  |  |  | 5.25 h | 1.56 nM
3 | Cc1cccc(Cl)c1Oc1ncc(N=S(C)(C)=O)cc1-c1cn(C)c(=O)c2[nH]ccc12 [Example 20, 4-{2-(2-chloro-6-methylphenoxy)-5-{[dimethyl(oxo)-λ^6-sulfanylidene]amino}-pyridin-3-yl}-6-methyl-1,6-dihydro-7H-pyrrolo[2,3-c]pyridin-7-one] | 12.9 nM | 0.27 nM | 75 nM |  |  |  |  | 9.25 nM
4 | CCNC(=O)c1cc2c(-c3cc(N=S(C)(C)=O)cnc3Oc3c(C)cccc3Cl)cn(C)c(=O)c2[nH]1 [Example 21, 4-{2-(2-chloro-6-methylphenoxy)-5-{[dimethyl(oxo)-λ^6-sulfanylidene]amino}-pyridin-3-yl}-N-ethyl-6-methyl-7-oxo-6,7-dihydro-1H-pyrrolo[2,3-c]pyridine-2-carboxamide] | 10.7 nM | 0.13 nM | 138 nM |  |  |  |  | 18 nM

Further molecules by falling IC50 (MV4-11 cells), results first:

Row | IC50 (BRD4 (BD1)) | IC50 (BRD4 (BD2)) | IC50 (MV4-11 cells) | AUC(0-inf) [1] | Cmax [1] | Tmax [1] | half-life [1] | Structure (SMILES) | IC50 (Kasumi-1 cells)
5 | 86.4 nM | 0.4 nM | 120 nM |  |  |  |  | CCNC(=O)c1cc2c(-c3cc(N=S(C)(C)=O)cnc3Oc3c(C)cc(F)cc3C)cn(C)c(=O)c2[nH]1 [Example 16, 4-{5-{[dimethyl(oxo)-λ^6-sulfanylidene]amino}-2-(4-fluoro-2,6-dimethylphenoxy)pyridin-3-yl}-N-ethyl-6-methyl-7-oxo-6,7-dihydro-1H-pyrrolo[2,3-c]pyridine-2-carboxamide] | 20.7 nM
6 | 7.3 nM | 0.61 nM | 54 nM |  |  |  |  | Cn1cc(-c2cc(N=S(C)(C)=O)ncc2Oc2ccc(F)cc2F)c2cc[nH]c2c1=O [Example 19, 4-{5-(2,4-difluorophenoxy)-2-{[dimethyl(oxo)-λ^6-sulfanylidene]amino}-pyridin-4-yl}-6-methyl-1,6-dihydro-7H-pyrrolo[2,3-c]pyridin-7-one] | 7.37 nM
7 | 4.8 nM | 0.66 nM | 9.8 nM | 2.69 µg·h/mL | 0.61 µg/mL | 1 h | 2.9 h | Cn1cc(-c2cc(N=S(C)(C)=O)ccc2Oc2ccc(F)cc2F)c2cc[nH]c2c1=O [Example 5, 4-{2-(2,4-difluorophenoxy)-5-{[dimethyl(oxo)-λ^6-sulfanylidene]amino}phenyl}-6-methyl-1,6-dihydro-7H-pyrrolo[2,3-c]pyridin-7-one] | 15.4 nM
